Laboratory results taken from ChEMBL document CHEMBL1201862, “PubChem BioAssay data set” (2004).
Activity calls are given as the source filed them.

What was measured:
Protein skinhead-1 = target: T1, Protein skinhead-1 (Caenorhabditis elegans, UniProt P34707); assay type: functional
T1 sequence (P34707 whole entry): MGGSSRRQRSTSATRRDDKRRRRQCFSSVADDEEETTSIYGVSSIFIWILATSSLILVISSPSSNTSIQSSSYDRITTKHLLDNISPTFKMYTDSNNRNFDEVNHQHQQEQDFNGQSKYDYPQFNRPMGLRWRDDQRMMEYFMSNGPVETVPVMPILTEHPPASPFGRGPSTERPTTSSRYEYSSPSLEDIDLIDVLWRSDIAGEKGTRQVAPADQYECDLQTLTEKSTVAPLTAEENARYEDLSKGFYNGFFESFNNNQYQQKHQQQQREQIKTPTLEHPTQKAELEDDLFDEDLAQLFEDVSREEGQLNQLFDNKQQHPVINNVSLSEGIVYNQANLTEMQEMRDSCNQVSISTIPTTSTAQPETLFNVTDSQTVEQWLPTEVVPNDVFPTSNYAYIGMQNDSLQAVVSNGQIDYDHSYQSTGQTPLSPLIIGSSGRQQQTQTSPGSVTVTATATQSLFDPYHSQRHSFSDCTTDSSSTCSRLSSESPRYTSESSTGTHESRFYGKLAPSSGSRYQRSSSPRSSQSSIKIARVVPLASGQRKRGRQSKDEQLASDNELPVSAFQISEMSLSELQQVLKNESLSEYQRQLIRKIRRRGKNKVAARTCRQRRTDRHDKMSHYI

[1] = target: Glutathione-S-transferase (Schistosoma japonicum, UniProt Q26513); experiment: biotin-GST/anti-GST TR-FRET signal inhibitors, dose response, artefact control for Vif-APOBEC3G degradation inhibitor project, biochemical (AID 1117362); assay type: functional
[2] = target: FAD-linked sulfhydryl oxidase ALR (Homo sapiens, UniProt P55789); experiment: inhibitors of human ALR sulfhydryl oxidase, dose response, biochemical, H2O2 detection, luminescence, cherry-pick (AID 493248)
14-3-3 protein gamma = target: T2, 14-3-3 protein gamma (Homo sapiens, UniProt P61981); experiment: modulators of 14-3-3 gamma client binding – dose response (AID 711); assay type: functional
T2 sequence (P61981 whole entry): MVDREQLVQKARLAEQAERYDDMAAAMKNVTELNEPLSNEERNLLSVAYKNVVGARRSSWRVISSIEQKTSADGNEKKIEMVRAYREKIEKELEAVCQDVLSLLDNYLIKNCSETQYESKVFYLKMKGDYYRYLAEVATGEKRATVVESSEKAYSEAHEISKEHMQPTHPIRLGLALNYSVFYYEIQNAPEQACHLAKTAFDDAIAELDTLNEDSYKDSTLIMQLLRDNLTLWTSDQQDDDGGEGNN

[3] = HepG2 cell cytotoxicity, dose response, cytotoxicity control, ATP luminescence, dry powder, set 2 (AID 743129); assay type: functional, cell-based
Cryptococcus neoformans = experiment: PubChem AID 686997; assay type: functional, organism-based
[4] = CTGF mRNA reduction under YAP1 overexpression, dose response, mechanism study for YAP1 pathway inhibitor project, DLD1 cells, RT-qPCR, cherry-pick (AID 1053127); assay type: functional, cell-based; details: DLD-1
[5] = target: NAD-dependent protein deacylase sirtuin-5, mitochondrial (Homo sapiens, UniProt Q9NXA8); experiment: SIRT5 desuccinylase inhibitors, dose response, biochemical, fluorescence imaging, cherry-pick, set 5 (AID 720591);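 also: desuccinylation of succinyl peptide AMC substrate read as fluorescence after trypsin release; potency of inhibitors that lower fluorescence and may act on trypsin instead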
[6] = target: T3, Heat shock factor protein 1 (Mus musculus, UniProt P38532); experiment: inhibition of MG132-induced HSE-luciferase signal, confirmation, cell-based, NIH3T3, luminescence, dose retest (AID 2382); assay type: functional;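 also: NIH3T3 fibroblasts with HSF1-driven luciferase reporter stressed by proteasome inhibitor MG132; luminescence from HSF1-driven luciferase expression after 8 hours of MG132 stress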
T3 sequence (P38532 whole entry): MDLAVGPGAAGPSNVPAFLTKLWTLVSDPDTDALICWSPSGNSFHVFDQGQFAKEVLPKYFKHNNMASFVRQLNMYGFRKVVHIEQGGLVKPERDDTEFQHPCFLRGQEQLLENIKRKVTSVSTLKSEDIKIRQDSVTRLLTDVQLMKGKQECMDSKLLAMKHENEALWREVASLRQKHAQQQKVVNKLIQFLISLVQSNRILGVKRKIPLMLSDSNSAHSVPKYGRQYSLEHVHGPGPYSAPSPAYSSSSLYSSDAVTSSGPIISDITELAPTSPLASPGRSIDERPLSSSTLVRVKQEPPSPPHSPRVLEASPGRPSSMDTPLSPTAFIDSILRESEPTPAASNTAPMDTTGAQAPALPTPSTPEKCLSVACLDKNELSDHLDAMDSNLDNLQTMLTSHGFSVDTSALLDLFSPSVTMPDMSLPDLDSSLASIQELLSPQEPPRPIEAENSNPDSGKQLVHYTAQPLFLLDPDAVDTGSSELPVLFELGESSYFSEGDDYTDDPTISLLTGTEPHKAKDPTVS

[7] = target: T4, Oxysterols receptor LXR-beta (Homo sapiens, UniProt P55055); experiment: LXR agonists, Gal4 luciferase reporter, dose response, counter-screen for ssDAF-12 agonist project, cell-based, luminescence, HEK293, S. stercoralis campaign (AID 720737); assay type: functional; details: read-out: IC50 (the source's name)
T4 sequence (P55055 whole entry): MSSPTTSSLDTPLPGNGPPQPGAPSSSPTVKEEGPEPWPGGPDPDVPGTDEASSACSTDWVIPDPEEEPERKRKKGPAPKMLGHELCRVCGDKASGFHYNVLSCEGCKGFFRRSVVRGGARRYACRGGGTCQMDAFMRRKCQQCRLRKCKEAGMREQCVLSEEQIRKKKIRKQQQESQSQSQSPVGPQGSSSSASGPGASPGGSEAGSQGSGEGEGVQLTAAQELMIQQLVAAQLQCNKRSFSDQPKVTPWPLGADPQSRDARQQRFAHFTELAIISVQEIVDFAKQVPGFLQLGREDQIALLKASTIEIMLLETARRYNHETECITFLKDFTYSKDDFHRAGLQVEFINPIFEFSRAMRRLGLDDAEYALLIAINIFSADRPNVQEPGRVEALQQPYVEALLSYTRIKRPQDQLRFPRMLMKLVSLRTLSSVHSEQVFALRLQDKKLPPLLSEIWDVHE

[8] = Luminescence-based cell-based high throughput dose response assay to identify activators of the DAF-12 from the parasite S. stercoralis (ssDAF-12).; assay type: functional
[9] = target: T5, Rac GTPase-activating protein 1 (Homo sapiens, UniProt Q9H0H5); experiment: MgcRacGAP GTPase-activating activity inhibitors, confirmation, biochemical, ADP Hunter fluorescence, primary and confirmatory (AID 624330); assay type: functional
T5 sequence (Q9H0H5 whole entry): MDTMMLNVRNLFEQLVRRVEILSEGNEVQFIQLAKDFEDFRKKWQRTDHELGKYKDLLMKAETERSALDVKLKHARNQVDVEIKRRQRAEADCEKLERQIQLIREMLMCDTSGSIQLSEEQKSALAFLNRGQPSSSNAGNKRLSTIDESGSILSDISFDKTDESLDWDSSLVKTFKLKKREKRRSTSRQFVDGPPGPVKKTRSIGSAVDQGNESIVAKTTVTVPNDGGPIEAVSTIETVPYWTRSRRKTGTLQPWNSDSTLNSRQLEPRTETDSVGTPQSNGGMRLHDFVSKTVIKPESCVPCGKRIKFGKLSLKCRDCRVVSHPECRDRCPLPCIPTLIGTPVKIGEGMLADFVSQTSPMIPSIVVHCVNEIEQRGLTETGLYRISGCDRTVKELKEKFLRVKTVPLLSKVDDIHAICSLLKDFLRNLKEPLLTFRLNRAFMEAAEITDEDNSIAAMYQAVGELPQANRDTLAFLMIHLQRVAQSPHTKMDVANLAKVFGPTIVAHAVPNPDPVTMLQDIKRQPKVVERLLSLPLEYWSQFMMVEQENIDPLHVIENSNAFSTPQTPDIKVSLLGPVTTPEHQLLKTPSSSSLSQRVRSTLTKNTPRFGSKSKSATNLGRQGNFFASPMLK

[10] = target: T6, DNA repair protein RAD52 homolog (Homo sapiens, UniProt P43351); assay type: functional, biochemical
T6 sequence (P43351 whole entry): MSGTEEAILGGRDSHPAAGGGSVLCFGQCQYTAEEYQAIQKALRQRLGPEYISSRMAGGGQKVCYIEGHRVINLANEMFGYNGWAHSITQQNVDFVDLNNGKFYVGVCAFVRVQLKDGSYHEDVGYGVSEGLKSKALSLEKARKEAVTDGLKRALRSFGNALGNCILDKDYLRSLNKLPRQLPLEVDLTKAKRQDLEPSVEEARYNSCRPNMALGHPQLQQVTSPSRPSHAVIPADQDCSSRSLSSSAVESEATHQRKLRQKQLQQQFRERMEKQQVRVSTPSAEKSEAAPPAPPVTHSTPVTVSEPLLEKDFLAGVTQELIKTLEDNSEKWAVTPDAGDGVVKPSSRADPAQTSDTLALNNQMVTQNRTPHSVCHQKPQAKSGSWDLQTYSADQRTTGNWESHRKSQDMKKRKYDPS

[11] = target: Dual specificity tyrosine-phosphorylation-regulated kinase 1A (Rattus norvegicus, UniProt Q63470); assay type: biochemical, Homo sapiens
[12] = target: T7, Sentrin-specific protease 1 (Homo sapiens, UniProt Q9P0U3); experiment: potency of human SENP1 inhibitors, dose response, biochemical, kinetic FRET (AID 651697); assay type: functional; details: read-out: IC50_Mean
[13] = HeLa cell cytotoxicity, dose response, cytotoxicity control for MgcRacGAP inhibitor project (AID 624300); assay type: functional
[14] = target: T7, Sentrin-specific protease 1; experiment: Dose response confirmation of small molecule inhibitors of the catalytic domain of the SUMO protease, SENP1 in a FRET assay.; assay type: functional; details: read-out: IC50_Mean
Transthyretin = Transthyretin (Homo sapiens, UniProt P02766); experiment: Luminescence-based cell-based high throughput dose response assay to identify activators of Transthyretin (TTR) transcription.; assay type: functional
[15] = RKO cell viability reduction, dose response, CellTiter-Glo luminescence (AID 1117322); assay type: functional
[16] = HCT116 cell viability decrease, GSK3B pretreatment – CellTiter-Glo, IC50, dose response (AID 1117339); assay type: functional; details: HCT-116
[17] = SNU-C1 cell viability reduction, dose response, CellTiter-Glo luminescence (AID 1117323); assay type: functional, cell-based
[18] = cytotoxicity toward HCT116 cells – cell-based, CellTiter-Glo luminescence, IC50, dose response (AID 1117332); assay type: functional; details: HCT-116
[19] = Concentration-dependent survival of SW480 colon cancer line, luminescence detection with CellTiter-Glo, half-maximal inhibitory concentration (AID 1117338); assay type: functional
[20] = CellTiter-Glo luminescent dose response of DLD-1 viability loss (AID 1117352); assay type: functional
[21] = cytotoxicity toward HT-29 cells – cell-based, CellTiter-Glo luminescence, IC50, dose response (AID 1117330); assay type: functional
[22] = cytotoxicity toward Colo320 cells – cell-based, CellTiter-Glo luminescence, IC50, dose response (AID 1117334); assay type: functional; details: COLO 320
[23] = TB: CFU replicating Measured in Microorganism System Using Imaging - 7108-05_Inhibitor_Dose_DryPowder_Activity_Set2.; assay type: functional
[24] = HeLa cell cytotoxicity, dose response, cytotoxicity control, CellTiter-Glo luminescence, dry powder, set 2 (AID 720593); assay type: functional, cell-based
[25] = HepG2 hepatoma cell cytotoxicity, dose response, cytotoxicity control, CellTiter-Glo luminescence, dry powder, set 3 (AID 720594); assay type: functional, cell-based
[26] = HEK293T cell cytotoxicity, dose response, cytotoxicity control, CellTiter-Glo luminescence, dry powder, set 2 (AID 720595); assay type: functional, cell-based; details: HEK293

T7 sequence (Q9P0U3 whole entry): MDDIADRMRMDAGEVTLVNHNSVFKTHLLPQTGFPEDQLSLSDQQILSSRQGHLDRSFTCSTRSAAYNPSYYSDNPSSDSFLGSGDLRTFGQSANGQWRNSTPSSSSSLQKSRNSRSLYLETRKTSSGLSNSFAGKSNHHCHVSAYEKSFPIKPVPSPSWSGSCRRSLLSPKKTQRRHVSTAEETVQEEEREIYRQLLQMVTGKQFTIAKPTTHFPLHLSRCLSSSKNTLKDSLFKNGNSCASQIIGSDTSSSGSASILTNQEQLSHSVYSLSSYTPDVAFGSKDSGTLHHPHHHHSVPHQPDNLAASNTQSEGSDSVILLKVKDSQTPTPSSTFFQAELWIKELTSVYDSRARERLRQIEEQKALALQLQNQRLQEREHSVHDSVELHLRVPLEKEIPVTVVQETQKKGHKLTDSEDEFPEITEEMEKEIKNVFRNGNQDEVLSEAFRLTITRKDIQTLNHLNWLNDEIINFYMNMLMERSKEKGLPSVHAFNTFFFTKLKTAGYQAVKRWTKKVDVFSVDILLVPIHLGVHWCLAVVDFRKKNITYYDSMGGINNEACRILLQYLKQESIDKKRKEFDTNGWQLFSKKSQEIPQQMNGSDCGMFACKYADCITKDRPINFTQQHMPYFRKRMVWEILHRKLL
NAD-dependent protein deacylase sirtuin-5, mitochondrial, sequence (Q9NXA8 whole entry): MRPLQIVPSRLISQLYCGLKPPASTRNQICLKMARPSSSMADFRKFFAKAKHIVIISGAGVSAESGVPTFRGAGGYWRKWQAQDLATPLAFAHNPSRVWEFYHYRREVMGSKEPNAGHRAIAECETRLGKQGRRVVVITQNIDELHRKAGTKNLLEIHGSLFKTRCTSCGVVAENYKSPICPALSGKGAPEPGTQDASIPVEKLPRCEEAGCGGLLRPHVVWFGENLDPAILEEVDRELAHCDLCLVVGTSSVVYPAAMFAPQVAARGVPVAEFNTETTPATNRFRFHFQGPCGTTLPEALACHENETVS
FAD-linked sulfhydryl oxidase ALR, sequence (P55789 whole entry): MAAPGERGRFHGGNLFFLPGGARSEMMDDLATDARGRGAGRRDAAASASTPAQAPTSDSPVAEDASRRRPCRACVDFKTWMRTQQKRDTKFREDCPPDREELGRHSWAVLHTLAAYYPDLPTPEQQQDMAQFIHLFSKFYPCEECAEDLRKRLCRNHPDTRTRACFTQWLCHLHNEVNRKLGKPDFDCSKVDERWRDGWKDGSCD
Glutathione-S-transferase, sequence (Q26513 whole entry): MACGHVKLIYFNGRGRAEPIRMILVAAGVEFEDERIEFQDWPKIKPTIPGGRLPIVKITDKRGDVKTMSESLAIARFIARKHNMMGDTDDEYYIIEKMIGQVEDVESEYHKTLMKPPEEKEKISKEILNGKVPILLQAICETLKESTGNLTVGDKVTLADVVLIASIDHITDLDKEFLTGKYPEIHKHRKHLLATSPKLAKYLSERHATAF

SMILES: NC(=O)c1cc(N)ccc1N1CCCC1
- IC50 (Protein skinhead-1): > 100 µM (inactive)
- IC50 [1]: 12.9 µM (active)
- AC50 [2]: 4.01 µM (active)
- IC50 (14-3-3 protein gamma): 18.1 µM (active)

SMILES: COC(=O)C1=C(C)N(Cc2ccc(F)cc2)C(=S)NC1c1cccc(F)c1 (stereo not given)
- AC50 [3]: > 52 µM (inactive)
- AC50 (Cryptococcus neoformans): 36.7 µM (active)

SMILES: C[C@@H]1CN([C@@H](C)CO)C(=O)CCCn2nncc2CO[C@@H]1CN(C)C(=O)c1cc(-c2ccccc2)on1
- AC50 [4]: > 26 µM (inactive)

SMILES: O=C(Cn1nc(-c2ccc(Cl)cc2)ccc1=O)NCC1CCCO1 (stereo not given)
- AC50 [5]: > 30 µM (inactive)
- EC50 [6]: > 195 µM (not active)

SMILES: COC(=O)[C@]12C=CCN1[C@H](c1ccc(OC)c(OC)c1)c1c(c3ccccc3n1S(=O)(=O)c1ccc(C)cc1)C2
- EC50 [7]: > 67.5 µM (inactive)
- IC50 [8]: > 67.5 µM (inactive)

SMILES: CN(C)CCNc1ccc(CO)c2oc3ccc(O)cc3c(=O)c12
- IC50 [9]: 128 µM (active)
- AC50 [10]: 2.51 µM (active)
- AC50 [11]: 8.03 µM (active)
- IC50 [12]: 14.1 µM (active)
- CC50 [13]: 50.8 µM (active)
- IC50 [14]: 21.6 µM (inactive)
- EC50 (Transthyretin): > 167 µM (inactive)

SMILES: CCCCCCCCCCCCCCCCCC[N+](C)(C)CCC[Si](OC)(OC)OC
- IC50 [15]: > 20 µM (inactive)
- IC50 [16]: > 20 µM (inactive)
- IC50 [17]: > 20 µM (inactive)
- IC50 [18]: > 20 µM (inactive)
- IC50 [19]: > 20 µM (inactive)
- IC50 [20]: > 20 µM (inactive)
- IC50 [21]: > 20 µM (inactive)
- IC50 [22]: > 20 µM (inactive)

SMILES: Cn1c(NC(=O)c2ccccc2)nc2c3cccnc3ccc21
- AbsAC90 [23]: 141.12 µM

SMILES: CCn1nc(-c2cccnc2)nc2c(=O)n(C)c(=O)nc1-2
- AC50 [24]: 4.34 µM (active)
- AC50 [25]: 3.24 µM (active)
- AC50 [26]: 16.4 µM (active)
